Experimental data taken from patent US10413583B2, “Synthetic substrates for enzymes that catalyze reactions of modified cysteines and related methods” (The University of Chicago, priority 2016, dated 2019).

How the values were obtained:
[1] = Water solubility of probes (stated in words); assay type: physicochemical
APT1 = target: T1, APT1 (Homo sapiens, UniProt O75608); test: In vitro kinetic assays and emission spectra of DPP-1, DPP-4, DPP-5 with APT1 (no detergent); assay type: biochemical
T1 construct: His-tag; made in house; host or cells: E. coli ROSETTA DE3
Procedure: (§1) 150 μL of 2 μM DPP-1, DPP4 or DPP-5 in HEPES (20 mM, pH=7.4, 150 mM NaCl) were added to a 96-well optical bottom plate (Nunc 265301, Fisher Scientific, Pittsburgh, Pa., United States of America) at room temperature. 150 μL of either HEPES buffer alone or HEPES buffer containing 100 nM APT1 or APT2 (purification using previous methods), was added using a multi-channel pipette, resulting in a final concentration of 1 μM DPP-1/DPP4/DPP-5 and 50 nM APT1 or APT2. Fluorescence intensities (λex 490/20 nm, λem 545/20 nm, Gain 80, read from bottom with height 4.5 mm, and sweep method) were measured at 15 s time intervals for 30 min at 37° C. Following the 30 min kinetic run, emission spectra were obtained (λex 480/20 nm, Aem515-700 nm, Gain 80, read from bottom with height 4.5 mm, and sweep method).

APT2 [2] = target: T2, APT2 (Homo sapiens, UniProt O95372); test: In vitro kinetic assays and emission spectra of DPP-1, DPP-4, DPP-5 with APT2 (no detergent); assay type: biochemical
T2 construct: His-tag; made in house; host or cells: E. coli ROSETTA DE3
Procedure: as §1

APT2 [3] = target: T2, APT2; test: Enzyme kinetics analysis of DPP-5 with APT2; assay type: biochemical; conditions: APT2 50 nM
Procedure: 150 μL of 1 M DTT in HEPES buffer was added to different concentrations of 150 μL DPP-5 and then the stable fluorescence intensities of totally deacylated product were measured by the methods described above. Fluorescence intensity of per molar deacylated-product was then calculated by linear least-squares fitting of plots of fluorescence vs. concentration. For Michaelis-Menten constant, in vitro kinetics curves were obtained for different final concentrations of DPP-5 in HEPES with 50 nM APT1 or APT2. The fluorescence intensities measured were then normalized to the concentrations of product by fluorescence-intensity-permolar-product. A Lineweaver-Burk plot was used to calculate the Michaelis constant, KM, and the maximum velocity, Vmax, which is proportional to kcat by concentration of APT1 or APT2. All fits have R^2 values of >0.99.

[4] = Log P analysis of DPP-1/4/5; assay type: physicochemical; conditions: 1-octanol / Hepes buffer
Procedure: 2 μL of 1 mM of DPP-1/4/5 was dissolved in 500 μL of Hepes buffer in two 1.5 mL tubes. To one tube, 500 μL of 1-octanol was added and the tube was shaken for 10 min followed by keeping it undisturbed for 10 min. Then, 10 μL of aqueous phase from each tube was placed in a 96 well plate reader. To this, 190 μL of 1M NaOH was added and fluorescence intensities (λex 490/20 nm, λem 545/20 nm, Gain 80, read from bottom with height 4.5 mm, and sweep method) were measured at 15 second time intervals for 1 hr at room temperature. The fluorescence read out at saturation was used to calculate Log P values by following equation: log P=log(Foct/Faq) Foct=Ftotal−Faq where: Foct=Fluorescence of 1-octanol fraction; Faq=Fluorescence of the aqueous fraction after treatment with 1-octanol, and Ftotal=Fluorescence of the aqueous fraction with no treatment with 1-octanol.

T2 sequence (O95372 whole entry): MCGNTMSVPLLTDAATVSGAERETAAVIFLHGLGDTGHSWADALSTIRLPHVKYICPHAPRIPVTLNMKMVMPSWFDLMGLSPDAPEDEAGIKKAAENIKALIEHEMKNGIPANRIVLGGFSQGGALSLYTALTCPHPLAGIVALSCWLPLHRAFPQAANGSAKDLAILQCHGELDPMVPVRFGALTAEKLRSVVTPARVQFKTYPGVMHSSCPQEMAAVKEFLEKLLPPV
T1 sequence (O75608 whole entry): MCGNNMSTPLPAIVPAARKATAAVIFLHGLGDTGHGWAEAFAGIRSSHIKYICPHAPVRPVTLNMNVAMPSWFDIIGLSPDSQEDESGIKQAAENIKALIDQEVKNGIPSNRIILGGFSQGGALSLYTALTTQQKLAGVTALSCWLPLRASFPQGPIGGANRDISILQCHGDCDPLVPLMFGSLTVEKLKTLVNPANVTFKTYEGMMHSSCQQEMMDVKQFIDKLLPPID

In the case of CCCCCCCCCCCCCCCC(=O)SC[C@@H](C(=O)NC)N(C)C(=O)Oc1ccc2c(c1)Oc1cc(N3CCN(C(=O)CCC(=O)O)CC3)ccc1C21OC(=O)c2ccccc21 (some centres unmarked) [DPP-5], the “water solubility” value [1] is reported as “relatively higher water solubility”, the “enhancement in intensity of fluorescence signal” value (APT1; 1 μM probe, 50 nM APT1, 30 minutes, absence of detergents) is reported as 350 fold and the “in vitro kinetics” value (APT1; APT1, absence of detergents) is reported as “more rapid turn-on response”. For the same compound, the “enhancement in intensity of fluorescence signal” value (APT2 [2]; 1 μM probe, 50 nM APT2, 30 minutes, absence of detergents) was 350 fold, the “in vitro kinetics” value (APT2 [2]; APT2, absence of detergents) was “more rapid turn-on response” and the Kcat (APT2 [3]) was 0.066 s⁻¹. The Km (APT2 [3]; Lineweaver-Burk) was 2.1 µM and the LogP [4] was 0.79.
